Tests used:
[1] = system: TAA-induced liver fibrotic C57BL/6J mice; assay: Liver weight, body weight and liver index; type: in vivo; settings: CX groups (20 and 50 mg/kg oral, 6 weeks); vs TAA group
Procedure: For tests of adlay extracts, mice were randomly divided into the following seven groups (n=6, per group): (1) No treatment group (NT, normal diet), (2) Thioacetamide group (TAA, 200 mg/kg, normal diet), (3) 10% adlay seed powder (ASP) group, (4) 1% adlay leaf powder (ALP) group, (5) 1% adlay seed polysaccharide (ASPS) group, (6) 0.025% adlay seed ethanolic extract (ASE) group and (7) 0.1% ASE group. NT group received pure saline, and other groups intraperitoneally injected with TAA dissolved into saline thrice a week.
(§1) For tests of CX, mice were randomly divided into the following four groups (n=8, per group): (1) NT group, (2) TAA group (200 mg/kg), (3) CX group (CX20, 20 mg/kg), and (4) CX group (CX50, 50 mg/kg). NT group received pure saline, and other groups intraperitoneally injected with TAA dissolved into saline thrice a week. Moreover, NT group and TAA group also received 5% propylene glycol, while CX groups received CX dissolved into 5% propylene glycol (prepared in 0.9% saline) by oral gavage once per day.
The procedure of the schematic diagram of animal experiment design in adlay groups is described as follows. To examine the effects of adlay on liver fibrosis, this example established a TAA-induced liver fibrotic C57BL/6J mouse model. FIG. 1 is a schematic diagram of animal experiment design in adlay groups. In this experiment, C57BL/6J mice were intraperitoneally injected with thioacetamide (TAA) to induce liver fibrosis. At six weeks of age, the mice were randomly divided into seven groups fed with different diets (NT, TAA, 10% ASP, 1% ALP, 1% ASPS, 0.025% ASE and 0.1% ASE, n=6). After co-feeding for 6 weeks during which intraperitoneal injection of TAA was administered thrice a week, the mice were finally sacrificed at 12 weeks of age. NT represents no treatment, ASP represents adlay seed powder, ALP represents adlay leaf powder, ASPS represents adlay seed polysaccharide, and ASE represents adlay seed ethanolic extract. […]

[2] = system: TAA-induced liver fibrotic C57BL/6J mice; assay: Oxidative stress indicator tests in liver (SOD, CAT, GSH, MDA); type: in vivo; settings: 6 weeks, vs TAA group
Procedure: as §1
To examine the effects of CX on liver fibrosis, this example established a TAA-induced liver fibrotic C57BL/6J mouse model. FIG. 6 is a schematic diagram of animal experiment design in 6-methoxybenzoxazolinone (6-MBOA) (CX) groups. For animal experiments, 6-week-old C57BL/6J mice were randomly divided into four groups including NT, TAA, CX20 (TAA+20 mg/kg CX), CX50 (TAA+50 mg/kg CX). (n=8 per group). Mice were given intraperitoneal injection of TAA thrice a week to induce liver fibrosis; they also received CX or the vehicle by oral gavage once per day. At the end of animal tests, mice were sacrificed at 12 weeks of age. Six-week-old mice were randomly divided into four groups, namely NT, TAA, CX20 and CX50 (FIG. 6). Among these groups, only the NT group was oral gavaged and administered with vehicle, the TAA group was oral gavaged with vehicle and administered with TAA, and the CX groups were oral gavaged with CX and administered with TAA. Oral gavage was performed once a day while intraperitoneal injection was given thrice a week; both oral gavage and intraperitoneal injection were continuously administered for six weeks. After that, the mice were sacrificed, and their liver tissues and serum were collected for subsequent analyses.
The procedure of oxidative stress indicator tests is as follows. The enzyme activity of catalase (CAT) and superoxide dismutase (SOD), the content of malondialdehyde (MDA), and the concentration of glutathione (GSH) in tissue were tested to examine changes in oxidative stress levels in TAA-induced liver fibrotic mice. […] All of the kits were commercial products, the working protocol followed the manufacturer's instructions. Briefly, the liver tissue was homogenized in ice-cold buffer and centrifuged at 4° C., then collected supernatant for analysis, finally, read the absorbance of samples with ELISA reader (TECAN, Switzerland).

[3] = system: TGF-β1-activated HSC-T6 cells; assay: Western blot of fibrotic and EMT-related proteins; type: cell-based, rat; settings: HSC-T6, TGF-β1 10 ng/mL, 24 h
Procedure: The procedure of cell cultures is as follows. HSC-T6 cell is an immortalized cell line isolated from transformed SV40 large T-antigen transformed primary stellate cells of male Sprague-Dawley rats. HSC-T6 cells were maintained in Dulbecco's Modified Eagle Medium (DMEM, Sigma-Aldrich, USA) containing 8% fetal bovine serum (FBS, HyClone, USA), 100 U/mL of penicillin, and 100 μg/mL of streptomycin (Gibco, USA).
For hepatic stellate cell (HSC) activation, cells were cultured for 24 h and then replaced with serum-free medium for 24 h, after that, treated with transforming growth factor beta 1 (TGF-β1) (10 ng/mL) in the presence or absence of CX (10-100 μM) or adlay leaf, root, and seed extracts (25 and 50 μg/mL) for 24 h, or 30 min for intracellular signal pathways.
The procedure of Western blot analysis is as follows. Cells were lysed in RIPA buffer with protease inhibitor and then centrifuged at 4° C., 12000 rpm for 10 min. Collected the supernatant and quantified the total protein concentration to 50 μg. After heating at 95° C. for 10 min, the protein samples were separated by SDS-PAGE gel, transferred to PVDF membrane, followed by blocking with 6% milk, incubated with primary antibodies at 4° C., overnight and secondary antibodies at room temperature for 1 h. Blot images were visualized on Amersham Imager 680 (Cytiva, USA) with ECL agent (GeneDireX, USA).

SMILES: COc1ccc2[nH]c(=O)oc2c1 [CX, 6-methoxybenzoxazolinone]
- change in body weight caused by TAA [1]: did not significantly improve
- liver index (ratio of liver weight to body weight) [1]: decreased significantly
- liver weight [1]: reduced
- liver CAT activity ([2]; CX20: 20 mg/kg oral): increased
- liver GSH content ([2]; CX20: 20 mg/kg oral): increased
- liver MDA content ([2]; CX20: 20 mg/kg oral): decreased
- liver CAT activity ([2]; CX50: 50 mg/kg oral): increased
- liver GSH content ([2]; CX50: 50 mg/kg oral): increased
- liver MDA content ([2]; CX50: 50 mg/kg oral): decreased
- liver SOD activity ([2]; CX50: 50 mg/kg oral): significantly increased
- TGF-β1-induced COL1A1 expression (Western blot) ([3]; CX 10-100 μM): reduced
- TGF-β1-induced fibronectin expression (Western blot) ([3]; CX 10-100 μM): reduced
- TGF-β1-induced α-SMA expression (Western blot) ([3]; CX 10-100 μM): reduced
- E-cadherin expression (Western blot) ([3]; CX even at the lowest dose (10 μM)): significantly enhanced

Source: patent US20250017907A1, “METHOD FOR PREVENTING AND/OR TREATING LIVER FIBROSIS BY USING 6-METHOXYBENZOXAZOLINONE AND COIX LACHRYMA-JOBI L. EXTRACT COMPRISING 6-METHOXYBENZOXAZOLINONE” (Taichung District Agricultural Research and Extension …, priority 2023, published 2025)
